Test results as given in publication PMC4703832, “Haem-activated promiscuous targeting of artemisinin in Plasmodium falciparum” (Nature Communications, 2015).

Columns and labels:
PyrK (pyruvate kinase) = molecular target: T1, PyrK (pyruvate kinase) (Plasmodium falciparum, UniProt C6KTA4); experiment: pyruvate kinase inhibition assay, absorbance at […] nm; assay type: biochemical; conditions: 0-80 uM artesunate, haemin 200 uM and L-ascorbic acid 200 uM, 4 h preincubation at 37 °C; covalent, haem-activated
T1 construct: gene PF3D7_0626800
T1 sequence (C6KTA4 1-511): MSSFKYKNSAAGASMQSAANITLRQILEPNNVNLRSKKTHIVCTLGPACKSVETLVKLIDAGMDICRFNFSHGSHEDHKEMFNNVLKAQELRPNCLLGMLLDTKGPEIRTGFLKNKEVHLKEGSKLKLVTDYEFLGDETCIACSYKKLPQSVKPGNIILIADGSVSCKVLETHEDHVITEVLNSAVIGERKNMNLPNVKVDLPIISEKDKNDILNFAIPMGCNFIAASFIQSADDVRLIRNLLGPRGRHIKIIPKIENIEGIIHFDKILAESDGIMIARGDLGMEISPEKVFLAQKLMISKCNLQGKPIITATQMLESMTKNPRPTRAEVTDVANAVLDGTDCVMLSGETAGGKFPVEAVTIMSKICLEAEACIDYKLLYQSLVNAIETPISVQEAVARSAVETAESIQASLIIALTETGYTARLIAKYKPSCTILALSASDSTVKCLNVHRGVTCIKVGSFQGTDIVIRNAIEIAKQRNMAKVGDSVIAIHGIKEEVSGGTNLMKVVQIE

[1] = molecular target: T2, LDH (L-lactate dehydrogenase) (Plasmodium falciparum, UniProt Q76NM3); experiment: LDH inhibition assay, absorbance at […] nm; assay type: biochemical; conditions: 0-80 uM artesunate, haemin 200 uM and L-ascorbic acid 200 uM, 4 h preincubation at 37 °C; covalent, haem-activated
T2 construct: gene PF3D7_1324900; gene amplified from 3D7 genomic DNA, pET28a, E. coli BL21(DE3)-star, Ni-NTA purified
T2 sequence (Q76NM3 1-316): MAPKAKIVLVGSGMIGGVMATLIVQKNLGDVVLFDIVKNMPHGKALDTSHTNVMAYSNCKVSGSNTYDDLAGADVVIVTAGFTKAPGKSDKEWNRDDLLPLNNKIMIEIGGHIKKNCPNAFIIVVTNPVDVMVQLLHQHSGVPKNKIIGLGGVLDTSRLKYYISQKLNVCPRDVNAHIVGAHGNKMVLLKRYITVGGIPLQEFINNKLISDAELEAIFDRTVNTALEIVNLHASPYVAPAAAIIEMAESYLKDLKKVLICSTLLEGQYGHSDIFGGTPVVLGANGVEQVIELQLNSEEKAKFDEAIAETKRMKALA

C[C@H]1[C@H](OC(=O)CCC(=O)O)O[C@@H]2O[C@@]3(C)CC[C@H]4[C@H](C)CC[C@@H]1[C@@]24OO3 [Arts, artesunate] was tested, and the dose-dependent inhibition (PyrK (pyruvate kinase)) was “Functional assays showed that artesunate inhibits their enzymatic activities in a dose-dependent manner” and the dose-dependent inhibition [1] was “Functional assays showed that artesunate inhibits their enzymatic activities in a dose-dependent manner”.
